# Data: patent US9580390B2, “Indazole compounds as kinase inhibitors and method of treating cancer with same” (University Health Network, priority 2011, dated 2017)
# Read-outs that look alike come from different tables or passages of the source.
# Experiments:
# [1] = target: T1, human TTK (Homo sapiens, UniProt P33981); experiment: TTK inhibition assay (indirect ELISA); format: biochemical
# T1 construct: amino terminal GST fusion of full length human TTK; purchased Invitrogen
# T1 sequence (P33981 1-857): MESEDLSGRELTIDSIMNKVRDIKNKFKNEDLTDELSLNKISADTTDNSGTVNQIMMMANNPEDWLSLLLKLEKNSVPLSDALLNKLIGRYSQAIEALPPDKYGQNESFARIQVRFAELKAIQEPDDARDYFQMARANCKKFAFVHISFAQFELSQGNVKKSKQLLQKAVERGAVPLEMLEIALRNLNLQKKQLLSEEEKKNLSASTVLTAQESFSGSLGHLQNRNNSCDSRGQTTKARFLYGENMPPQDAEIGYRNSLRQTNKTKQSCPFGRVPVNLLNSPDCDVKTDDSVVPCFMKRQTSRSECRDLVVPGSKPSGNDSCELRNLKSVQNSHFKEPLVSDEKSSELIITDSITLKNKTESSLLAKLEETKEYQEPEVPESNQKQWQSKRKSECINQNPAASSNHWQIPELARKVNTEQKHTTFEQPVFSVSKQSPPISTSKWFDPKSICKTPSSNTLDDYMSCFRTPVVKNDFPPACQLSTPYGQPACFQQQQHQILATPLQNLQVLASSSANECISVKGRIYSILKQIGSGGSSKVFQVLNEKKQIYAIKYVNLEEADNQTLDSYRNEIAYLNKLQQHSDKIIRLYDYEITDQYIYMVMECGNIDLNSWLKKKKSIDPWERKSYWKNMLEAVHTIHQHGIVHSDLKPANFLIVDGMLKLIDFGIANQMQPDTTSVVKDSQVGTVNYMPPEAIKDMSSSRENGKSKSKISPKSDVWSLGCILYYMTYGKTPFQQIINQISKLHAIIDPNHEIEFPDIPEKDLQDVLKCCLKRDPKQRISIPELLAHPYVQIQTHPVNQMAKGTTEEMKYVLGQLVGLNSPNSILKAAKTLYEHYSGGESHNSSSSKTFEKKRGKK
# Method: Active TTK was purchased from Invitrogen as an amino terminal GST fusion of full length human TTK. Amino terminal 6 histidine, sumo tagged human TTK (residues 1-275) was expressed in E. coli, and purified to >95% homogeneity by Ni^2+ agarose, gel filtration, and ion exchange chromatography.
# TTK activity was measured using an indirect ELISA detection system. GST-TTK (0.68 nM) was incubated in the presence of 16 μM ATP (Sigma cat# A7699), 50 mM Hepes pH 7.2, 1 mM EGTA, 10 mM MgCl2, and 0.1% Pluronic in a 96 well microtitre plate pre-coated with amino terminal 6 histidine, sumo tagged TTK (amino acid residues 1-275). The reaction was allowed to proceed for 30 minutes, followed by 5 washes of the plate with Wash Buffer (phosphate buffered saline supplemented with 0.2% Tween 20), and incubation for 30 minutes with a 1:3000 dilution of primary antibody (Cell Signaling cat# 9381). The plate was washed 5 times with Wash Buffer, incubated for 30 minutes in the presence of secondary antibody coupled to horse radish peroxidase (BioRad cat# 1721019, 1:3000 concentration), washed an additional 5 times with Wash Buffer, and incubated in the presence of TMB substrate (Sigma cat# T0440). The colourimetric reaction was allowed to continue for 5 minutes, followed by addition of stop solution (0.5 N sulphuric acid), and quantified by detection at 450 nm with either a monochromatic or filter based plate reader (Molecular Devices M5 or Beckman DTX880, respectively).
# Compounds were pre-incubated in the presence of enzyme for 5 minutes prior to addition of ATP and the activity remaining quantified using the above described activity assay. The % Inhibition of a compound was determined using the following formula: % Inhibition=100×(1−(experimental value−background value)/(high activity control−background value)). The IC50 value was determined using a non-linear 4 point logistic curve fit (XLfit4, IDBS) with the formula: (A+(B/(1+((x/C)^D)))), where A=background value, B=range, C=inflection point, D=curve fit parameter.
# [2] = test system: colon cancer cells (HCT116); experiment: Cancer cell line growth inhibition (SRB assay); format: cell-based; details: read-out: Cancer Cell Line GI50 Range HCT116
# [3] = test system: TICs (Colon 12); experiment: Colon tumor-initiating cell growth inhibition (Alamar Blue); format: cell-based; details: 9 days, read-out: Tumor Initiating Cell GI50 Range Colon 12
# [4] = test system: TICs (Ovarian 2393A); experiment: Ovarian tumor-initiating cell growth inhibition (Alamar Blue); format: cell-based; details: 6 days, read-out: Tumor Initiating Cell GI50 Range Ovarain 2393A
# From the text: Materials and Methods: Non-tissue or tissue cultured treated T-75 flask and 96-well plates were purchased from VWR. Vitamin B-27 supplement, MEM NEAA (minimum essential medium non essential amino acids), sodium pyruvate, L-glutamine, N2 supplement, penicillin-streptomycin and fungizone/amphotericin B were obtained from Invitrogen. Lipid mixture, heparin and EGF were purchased from Sigma; bFGF from BD Biosciences. Tumor Initiating Cells (TICs) from colon were routinely maintained using non-tissue cultured treated T-75 flasks in DMEM:F12 medium containing 0.2×B-27 supplement, 4 ug/ml heparin, 1×MEM NEAA, 1× sodium pyruvate, 1 mM glutamine, 10 pg/ul bFGF, 20 pg/ul EGF, 1×N2 supplement, lipid mixture, penicillin-streptomycin and fungizone/amphotericin B. Ovarian TICs were routinely maintained using tissue cultured treated T-75 flasks in DMEM:F12 medium containing 1×B-27 supplement, 4 ug/ml heparin, 20 pg/ul bFGF, 20 pg/ul EGF and penicillin-streptomycin.
# Assay Protocol: Compounds described herein were dissolved in DMSO and further diluted in cell culture medium for GI50 determination. Colon TICs were trypsinized and seeded into non-tissue cultured treated 96-well plates with 4,000 cells/well. After 24 h, compound was added into the cell culture at different concentrations, and the final concentration of DMSO was adjusted to 0.1%. Cells were then cultured at 37° C. for 9 days. Ovarian TICs were trypsinized and seeded into tissue cultured treated 96-well plates with 1,000 cells/well. After 24 h, compound was added into the cell culture at different concentrations, and the final concentration of DMSO was adjusted to 0.1%. Cells were then cultured at 37° C. for 6 days. Cell viability was assessed by Alamar Blue assay: 10 ul of Alamar Blue was added into each well. After 4 hours incubation at 37° C., fluorescence was recorded at excitation 544 and emission 590. GI50 (Growth inhibition) was calculated using GraphPad Prism 4.0 software.
# [5] = test system: ovarian cancer cells (PA-1); experiment: Cancer cell line growth inhibition (SRB assay); format: cell-based; details: read-out: Cancer Cell Line GI50 Range PA-1
# [6] = Homo sapiens, HCT-116, HCT116 colon cancer cells, SRB assay
# [7] = 144 h, ovarian TICs, Alamar Blue
# [8] = PA-1 ovarian cancer cells, SRB assay
SMILES,IC50 ([1]; read-out: TTK IC50 Range),"GI50 ([2]; Homo sapiens, HCT-116)","GI50 ([3]; 216 h, Colon 12 TICs)","GI50 ([4]; 144 h, Ovarian 2393A TICs)","GI50 ([5]; Homo sapiens, PA-1)",IC50 [1],"GI50 ([2]; HCT116 colon cancer cells, SRB assay)","GI50 ([3]; colon TICs, Alamar Blue)","GI50 ([4]; ovarian TICs, Alamar Blue)","GI50 [2, 6]","GI50 ([3]; 216 h, colon TICs, Alamar Blue)","GI50 [4, 7]","GI50 [5, 8]"
"O=CN1C2CCC1CC(Oc1ccc(-c3n[nH]c4ccc(C(=O)N[C@H](c5ccccn5)C5CC5)cc34)cc1)C2 (stereo partly drawn) [Example A322, N-((S)-cyclopropyl(pyridin-2-yl)methyl)-3-(4-(((1R,3R,5S)-8-formyl-8-azabicyclo[3.2.1]octan-3-yl)oxy)phenyl)-1H-indazole-5-carboxamide]",< 0.1 µM,< 0.1 µM,< 0.1 µM,< 0.1 µM,< 0.1 µM,,,,,,,,
"O=C(N[C@H](c1ccccn1)C1CC1)c1ccc2[nH]nc(-c3ccc(OC4CC5CCC(C4)N5)cc3)c2c1 (stereo partly drawn) [Example A374, 3-(4-((1R,3R,5S)-8-azabicyclo[3.2.1]octan-3-yloxy)phenyl)-N-((S)-cyclopropyl(pyridin-2-yl)methyl)-1H-indazole-5-carboxamide]",< 0.1 µM,< 0.1 µM,> 0.5 µM,0.1 to 0.5 µM,< 0.1 µM,,,,,,,,
"O=C(N[C@H](c1ccccc1Cl)C1CC1)c1ccc2[nH]nc(-c3ccc(OC4CC5CCC(C4)N5C4COC4)cc3)c2c1 (stereo partly drawn) [Example A349, N-((S)-(2-chlorophenyl)(cyclopropyl)methyl)-3-(4-(((1R,3R,5S)-8-(oxetan-3-yl)-8-azabicyclo[3.2.1]octan-3-yl)oxy)phenyl)-1H-indazole-5-carboxamide]",< 0.1 µM,< 0.1 µM,< 0.1 µM,< 0.1 µM,< 0.1 µM,,,,,,,,
"O=C(NCC1(N2CCOCC2)CCCCC1)c1ccc2[nH]nc(-c3ccc(N4CCN(C5COC5)CC4)cc3)c2c1 [Example A500, N-((1-morpholinocyclohexyl)methyl)-3-(4-(4-(oxetan-3-yl)piperazin-1-yl)phenyl)-1H-indazole-5-carboxamide]",< 0.1 µM,< 0.1 µM,< 0.1 µM,< 0.1 µM,< 0.1 µM,,,,,,,,
"CC(C)C[C@H](NC(=O)c1ccc2[nH]nc(-c3ccc(N4C5CCC4CC(O)C5)cc3)c2c1)c1ccccn1 (stereo partly drawn) [Example A301, 3-(4-((1R,3S,5S)-3-hydroxy-8-azabicyclo[3.2.1]octan-8-yl)phenyl)-N-((S)-3-methyl-1-(pyridin-2-yl)butyl)-1H-indazole-5-carboxamide]",,< 0.1 µM,< 0.1 µM,< 0.1 µM,< 0.1 µM,< 0.1 µM,,,,,,,
"C[C@@H](O)CN1CCC(Oc2ccc(-c3n[nH]c4ccc(C(=O)N[C@H](c5ccccn5)C5CC5)cc34)cc2)CC1 [Example A221, N-((S)-cyclopropyl(pyridin-2-yl)methyl)-3-(4-((1-((R)-2-hydroxypropyl)piperidin-4-yl)oxy)phenyl)-1H-indazole-5-carboxamide]",< 0.1 µM,< 0.1 µM,0.1 to 0.5 µM,0.1 to 0.5 µM,< 0.1 µM,,,,,,,,
"O=C(N[C@H](c1ccccn1)C1CC1)c1ccc2[nH]nc(-c3ccc(N4C5CCC4CC(O)C5)cc3)c2c1 (stereo partly drawn) [Example A361, N-((S)-cyclopropyl(pyridin-2-yl)methyl)-3-(4-((1R,3S,5S)-3-hydroxy-8-azabicyclo[3.2.1]octan-8-yl)phenyl)-1H-indazole-5-carboxamide]",,< 0.1 µM,< 0.1 µM,< 0.1 µM,< 0.1 µM,< 0.1 µM,,,,,,,
"O=C(N[C@H](c1ccccn1)C1CC1)c1ccc2[nH]nc(-c3ccc(OC4CC5CCC(C4)N5C4COC4)cc3)c2c1 (stereo partly drawn) [Example A320, N-((S)-cyclopropyl(pyridin-2-yl)methyl)-3-(4-(((1R,3R,5S)-8-(oxetan-3-yl)-8-azabicyclo[3.2.1]octan-3-yl)oxy)phenyl)-1H-indazole-5-carboxamide]",< 0.1 µM,< 0.1 µM,< 0.1 µM,0.1 to 0.5 µM,< 0.1 µM,,,,,,,,
CN1CCC(Nc2ccc(-c3n[nH]c4ccc(NC(=O)C(c5ccsc5)N5CCCC5)cc34)cc2)CC1 (stereo not drawn) [Example A25],< 0.1 µM,,,,,,< 0.1 µM,0.1 to 0.5 µM,< 0.1 µM,,,,
"CC(C)[C@H](NC(=O)c1ccc2[nH]nc(-c3ccc(N4CCCN(C5COC5)CC4)cc3)c2c1)c1ccccc1Cl [Example A369, (S)-N-(1-(2-chlorophenyl)-2-methylpropyl)-3-(4-(4-(oxelan-3-yl)-1,4-diazepan-l-yl)phenyl)-1H-indazole-5-carboxamide]",< 0.1 µM,< 0.1 µM,< 0.1 µM,< 0.1 µM,< 0.1 µM,,,,,,,,
"CC(C)[C@H](NC(=O)c1ccc2[nH]nc(-c3ccc(OC4CCN(C5COC5)CC4)cc3)c2c1)c1ccccc1Cl [Example A332, (S)-N-(1-(2-chlorophenyl)-2-methylpropyl)-3-(4-((1-(oxetan-3-yl)piperidin-4-yl)oxy)phenyl)-1H-indazole-5-carboxamide]",< 0.1 µM,< 0.1 µM,< 0.1 µM,< 0.1 µM,< 0.1 µM,,,,,,,,
"CN1CCC(Oc2ccc(-c3n[nH]c4ccc(C(=O)NCC5(N6CCOCC6)CCCCC5)cc34)cc2)CC1 [Example A449, 3-(4-((1-methylpiperidin-4-yl)oxy)phenyl)-N-((1-morpholinocyclohexyl)methyl)-1H-indazole-5-carboxamide]",< 0.1 µM,,,,,,,,,< 0.1 µM,< 0.1 µM,0.1 to 0.5 µM,
"CN1CCC(Oc2ccc(-c3n[nH]c4ccc(NC(=O)C(c5cccs5)N5CCCC5)cc34)cc2)CC1 (stereo not drawn) [Example A91, N-(3-(4-((1-methylpiperidin-4-yl)oxy)phenyl)-1H-indazol-5-yl)-2-(pyrrolidin-1-yl)-2-(thiophen-2-yl)acetamide]",,,,,,,,,,< 0.1 µM,0.1 to 0.5 µM,< 0.1 µM,< 0.1 µM
"CC[C@@H](NC(=O)c1ccc2[nH]nc(-c3ccc(OC4CCN(C)CC4)cc3)c2c1)c1cccc(OC)c1 [Example A174, (R)-N-(1-(3-methoxyphenyl)propyl)-3-(4-((1-methylpiperidin-4-yl)oxy)phenyl)-1H-indazole-5-carboxamide]",,,,,,,,,,< 0.1 µM,0.1 to 0.5 µM,0.1 to 0.5 µM,0.1 to 0.5 µM
"O=C(N[C@H](c1ncccc1Cl)C1CC1)c1ccc2[nH]nc(-c3ccc(OC4CCN(C5COC5)CC4)cc3)c2c1 [Example A216, (S)-N-((3-chloropyridin-2-yl)(cyclopropyl)methyl)-3-(4-((1-(oxetan-3-yl)piperidin-4-yl)oxy)phenyl)-1H-indazole-5-carboxamide]",,< 0.1 µM,< 0.1 µM,< 0.1 µM,< 0.1 µM,,,,,,,,
O=CN1CCC(Oc2ccc(-c3n[nH]c4ccc(C(=O)NC(c5ccccc5F)C5CC5)cc34)cc2)CC1 (stereo not drawn) [Example A182],,,,,,,,,,< 0.1 µM,< 0.1 µM,< 0.1 µM,< 0.1 µM
"Cc1ccccc1C(NC(=O)c1ccc2[nH]nc(-c3ccc(OC4CCN(C)CC4)cc3)c2c1)C1CC1 (stereo not drawn) [Example A132, N-(cyclopropyl(o-tolyl)methyl)-3-(4-((1-methylpiperidin-4-yl)oxy)phenyl)-1H-indazole-5-carboxamide]",,,,,,,,,,< 0.1 µM,< 0.1 µM,0.1 to 0.5 µM,< 0.1 µM
